{"source": "patent US20090191253A2", "about": "(Creabilis Therapeutics S.P.A., priority 2005, published 2009)", "key": {"ABL": {"biological_target": "T1, ABL (Homo sapiens, UniProt P00519)", "T1 construct": "made in house; host or cells: baculovirus expression system", "assay": "Kinase inhibition profiling ABL (ELISA)", "format": "biochemical", "quoted_text": "(§1) Each test compound was weighed and dissolved in DMSO to make 1 mM stock solution. The stock solution was diluted with DMSO to achieve 20 μM. The compound solution was diluted with the assay buffer to achieve 0.8 μM."}, "RET": {"biological_target": "T2, RET (Homo sapiens, UniProt P07949)", "T2 construct": "Cytoplasmic domain of human RET [658-1114 amino acids; made in house; host or cells: baculovirus expression system", "assay": "Kinase inhibition profiling RET (ELISA); further: ATP 5 µM", "format": "biochemical", "quoted_text": "as §1"}, "ARG": {"biological_target": "T3, ARG (Homo sapiens, UniProt P42684)", "T3 construct": "made in house; host or cells: baculovirus expression system", "assay": "Kinase inhibition profiling ARG (ELISA); further: ATP 5 µM", "format": "biochemical", "quoted_text": "as §1"}, "SRM": {"biological_target": "T4, SRM (Homo sapiens, UniProt Q9H3Y6)", "T4 construct": "Kinase domain (KD) of human SRM [215-489 amino acids; made in house; host or cells: baculovirus expression system", "T4 sequence (Q9H3Y6 215-488 limits assumed)": "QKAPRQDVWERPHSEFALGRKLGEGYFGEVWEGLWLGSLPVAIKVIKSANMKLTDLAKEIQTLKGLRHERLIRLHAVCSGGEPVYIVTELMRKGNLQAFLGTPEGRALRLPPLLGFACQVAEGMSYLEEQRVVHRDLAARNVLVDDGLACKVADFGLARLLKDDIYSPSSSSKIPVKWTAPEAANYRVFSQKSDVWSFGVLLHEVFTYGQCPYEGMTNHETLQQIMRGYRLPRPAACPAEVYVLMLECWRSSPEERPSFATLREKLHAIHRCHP", "assay": "Kinase inhibition profiling SRM (ELISA)", "format": "biochemical", "quoted_text": "as §1"}, "PKCγ": {"biological_target": "T5, PKCγ (Homo sapiens, UniProt P05129)", "T5 construct": "made in house; host or cells: baculovirus expression system", "assay": "Kinase inhibition profiling PKCγ (IMAP)", "format": "biochemical", "quoted_text": "as §1"}, "RON": {"biological_target": "T6, RON (Homo sapiens, UniProt Q04912)", "T6 construct": "Cytoplasmic domain of human RON [979-1400 amino; made in house; host or cells: baculovirus expression system", "T6 sequence (Q04912 979-1400)": "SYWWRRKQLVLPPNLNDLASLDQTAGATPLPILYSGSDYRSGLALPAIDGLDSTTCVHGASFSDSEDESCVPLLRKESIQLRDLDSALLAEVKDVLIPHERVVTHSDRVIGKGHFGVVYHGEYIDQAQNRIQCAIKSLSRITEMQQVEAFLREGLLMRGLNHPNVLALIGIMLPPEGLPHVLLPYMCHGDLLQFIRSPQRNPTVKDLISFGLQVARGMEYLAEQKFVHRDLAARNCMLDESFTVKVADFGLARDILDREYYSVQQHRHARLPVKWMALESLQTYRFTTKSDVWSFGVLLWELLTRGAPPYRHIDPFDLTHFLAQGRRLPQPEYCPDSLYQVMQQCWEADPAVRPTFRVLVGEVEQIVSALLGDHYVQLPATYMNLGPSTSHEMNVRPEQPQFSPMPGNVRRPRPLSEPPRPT", "assay": "Kinase inhibition profiling RON (ELISA)", "format": "biochemical", "quoted_text": "as §1"}, "EphA2": {"biological_target": "T7, EphA2 (Homo sapiens, UniProt P29317)", "T7 construct": "made in house; host or cells: baculovirus expression system", "assay": "Kinase inhibition profiling EphA2 (ELISA)", "format": "biochemical", "quoted_text": "as §1"}, "TYK2": {"biological_target": "T8, TYK2 (Homo sapiens, UniProt P29597)", "T8 construct": "Kinase domain (KD) of human TYK2 [871-1187 amino; made in house; host or cells: baculovirus expression system", "assay": "Kinase inhibition profiling TYK2 (ELISA)", "format": "biochemical", "quoted_text": "as §1"}, "JAK1": {"biological_target": "T9, JAK1 (Homo sapiens, UniProt P23458)", "T9 construct": "Kinase domain (KD) of human JAK1 [838-1142 amino; made in house; host or cells: baculovirus expression system", "assay": "Kinase inhibition profiling JAK1 (ELISA)", "format": "biochemical", "quoted_text": "as §1"}, "[1]": {"test_system": "bovine aorta smooth muscle cells (BASMC)", "assay": "Proliferation assay, HMGB1-induced BASMC proliferation", "format": "cell-based", "details": "K-252a 3, 10, 30, 100 or 300 nM; HMGB1 25 ng/ml (1 nM); days 1-4", "method": "Proliferation assays were performed using an already described and validated method (1). BASMC cells (bovine aorta smooth muscle cells) were seeded in 6-well plates (10^5 cells/well) and grown in RPMI medium supplemented with 20% FCS. After 24 h, the medium was replaced with serum-free RPMI and cell were then starved for 16 hours to synchronize the cell population. […] Each experimental point represents the mean+/−SD of triplicate determinations. The experiment was repeated three times. BASMC cell proliferation was determined by detaching the cells from the plate at the indicated times (on days 1, 2, 3, and 4 of culturing) and counting the Trypan-blue excluding cells under the microscope."}, "MET": {"biological_target": "T10, MET (Homo sapiens, UniProt P08581)", "T10 construct": "made in house; host or cells: baculovirus expression system", "T10 sequence (P08581 956-1390)": "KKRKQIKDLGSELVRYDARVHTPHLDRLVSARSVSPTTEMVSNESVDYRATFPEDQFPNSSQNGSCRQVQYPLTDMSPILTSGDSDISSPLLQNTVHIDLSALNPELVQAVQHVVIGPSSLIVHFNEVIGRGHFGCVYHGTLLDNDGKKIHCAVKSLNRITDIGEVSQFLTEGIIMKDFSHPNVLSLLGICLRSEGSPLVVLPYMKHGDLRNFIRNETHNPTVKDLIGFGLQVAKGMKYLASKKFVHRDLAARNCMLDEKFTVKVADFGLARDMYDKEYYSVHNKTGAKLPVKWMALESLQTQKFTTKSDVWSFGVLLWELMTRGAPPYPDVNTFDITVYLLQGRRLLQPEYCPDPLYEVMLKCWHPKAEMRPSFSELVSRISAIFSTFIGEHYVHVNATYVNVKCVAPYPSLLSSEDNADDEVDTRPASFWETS", "assay": "Kinase inhibition profiling MET (ELISA); further: ATP 20 µM", "format": "biochemical", "quoted_text": "as §1"}, "CDK2/cyclinA": {"biological_target": "T11, CDK2/cyclinA (Homo sapiens, UniProt P24941)", "T11 construct": "His (N); made in house; host or cells: baculovirus expression system", "assay": "Kinase inhibition profiling CDK2/cyclinA (IMAP)", "format": "biochemical", "quoted_text": "as §1"}, "LYNb": {"biological_target": "T12, LYNb (Homo sapiens, UniProt P07948)", "T12 construct": "made in house; host or cells: baculovirus expression system", "T12 sequence (P07948 1-491 isoform P07948-2)": "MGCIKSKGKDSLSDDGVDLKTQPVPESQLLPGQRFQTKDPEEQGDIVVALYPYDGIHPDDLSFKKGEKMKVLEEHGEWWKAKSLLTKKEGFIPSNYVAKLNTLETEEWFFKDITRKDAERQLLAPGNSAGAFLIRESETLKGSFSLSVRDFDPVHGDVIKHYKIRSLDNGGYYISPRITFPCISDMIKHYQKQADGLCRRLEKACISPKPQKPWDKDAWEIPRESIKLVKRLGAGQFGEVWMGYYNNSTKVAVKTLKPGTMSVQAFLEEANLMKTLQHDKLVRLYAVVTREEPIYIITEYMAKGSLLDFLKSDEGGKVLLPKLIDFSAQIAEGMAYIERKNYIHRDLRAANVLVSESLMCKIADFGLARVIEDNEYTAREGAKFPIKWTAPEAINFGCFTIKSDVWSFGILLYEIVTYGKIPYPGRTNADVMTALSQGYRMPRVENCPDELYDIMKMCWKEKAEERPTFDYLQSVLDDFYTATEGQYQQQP", "assay": "Kinase inhibition profiling LYNb (ELISA)", "format": "biochemical", "quoted_text": "as §1"}, "ALK": {"biological_target": "T13, ALK (Homo sapiens, UniProt Q9UM73)", "T13 construct": "Cytoplasmic domain of human ALK [1089-1620; His (N, cleaved yes); made in house; host or cells: baculovirus expression system", "T13 sequence (Q9UM73 1089-1620)": "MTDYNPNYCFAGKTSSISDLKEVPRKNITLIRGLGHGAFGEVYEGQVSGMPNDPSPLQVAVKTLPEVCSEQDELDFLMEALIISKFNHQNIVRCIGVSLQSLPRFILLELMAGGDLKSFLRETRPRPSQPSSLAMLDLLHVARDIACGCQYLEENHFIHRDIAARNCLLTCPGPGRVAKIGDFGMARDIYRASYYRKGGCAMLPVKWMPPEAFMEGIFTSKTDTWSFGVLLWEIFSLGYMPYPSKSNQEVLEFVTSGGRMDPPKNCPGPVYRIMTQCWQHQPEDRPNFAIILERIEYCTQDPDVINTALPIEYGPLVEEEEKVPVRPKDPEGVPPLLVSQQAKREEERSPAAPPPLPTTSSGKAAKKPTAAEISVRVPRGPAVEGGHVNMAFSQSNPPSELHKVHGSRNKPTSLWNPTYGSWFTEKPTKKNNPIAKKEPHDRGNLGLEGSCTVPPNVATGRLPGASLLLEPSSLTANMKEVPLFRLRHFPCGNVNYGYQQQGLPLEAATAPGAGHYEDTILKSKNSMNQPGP", "assay": "Kinase inhibition profiling ALK (ELISA)", "format": "biochemical", "quoted_text": "as §1"}, "CHK2": {"biological_target": "T14, CHK2 (Homo sapiens, UniProt O96017)", "T14 construct": "His (N); made in house; host or cells: baculovirus expression system", "T14 sequence (O96017 whole entry)": "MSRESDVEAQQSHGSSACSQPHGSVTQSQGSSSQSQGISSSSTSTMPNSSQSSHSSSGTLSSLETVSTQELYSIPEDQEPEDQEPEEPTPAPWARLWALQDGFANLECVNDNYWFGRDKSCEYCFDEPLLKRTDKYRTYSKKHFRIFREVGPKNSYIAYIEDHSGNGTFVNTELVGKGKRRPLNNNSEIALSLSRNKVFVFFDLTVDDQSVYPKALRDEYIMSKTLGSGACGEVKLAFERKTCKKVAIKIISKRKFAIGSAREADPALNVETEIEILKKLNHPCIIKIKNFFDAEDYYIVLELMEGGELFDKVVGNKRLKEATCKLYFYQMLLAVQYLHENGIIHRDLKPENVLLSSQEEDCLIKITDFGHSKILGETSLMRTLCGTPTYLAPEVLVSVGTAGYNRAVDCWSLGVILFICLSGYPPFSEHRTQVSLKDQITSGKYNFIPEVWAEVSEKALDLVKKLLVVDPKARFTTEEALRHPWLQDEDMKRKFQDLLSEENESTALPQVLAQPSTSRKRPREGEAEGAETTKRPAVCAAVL", "assay": "Kinase inhibition profiling CHK2 (IMAP)", "format": "biochemical", "quoted_text": "as §1"}, "LCK": {"biological_target": "T15, LCK (Homo sapiens, UniProt P06239)", "T15 construct": "made in house; host or cells: baculovirus expression system", "assay": "Kinase inhibition profiling LCK (ELISA)", "format": "biochemical", "quoted_text": "(§2) In particular, the target kinases were Tyrosine kinases and Serine/Threonine kinases.\nas §1"}, "CSK": {"biological_target": "T16, CSK (Homo sapiens, UniProt P41240)", "T16 construct": "His (N, cleaved yes); made in house; host or cells: baculovirus expression system", "assay": "Kinase inhibition profiling CSK (ELISA)", "format": "biochemical", "quoted_text": "as §1"}, "SRC": {"biological_target": "T17, SRC (Homo sapiens, UniProt P12931)", "T17 construct": "made in house; host or cells: baculovirus expression system", "T17 sequence (P12931 whole entry)": "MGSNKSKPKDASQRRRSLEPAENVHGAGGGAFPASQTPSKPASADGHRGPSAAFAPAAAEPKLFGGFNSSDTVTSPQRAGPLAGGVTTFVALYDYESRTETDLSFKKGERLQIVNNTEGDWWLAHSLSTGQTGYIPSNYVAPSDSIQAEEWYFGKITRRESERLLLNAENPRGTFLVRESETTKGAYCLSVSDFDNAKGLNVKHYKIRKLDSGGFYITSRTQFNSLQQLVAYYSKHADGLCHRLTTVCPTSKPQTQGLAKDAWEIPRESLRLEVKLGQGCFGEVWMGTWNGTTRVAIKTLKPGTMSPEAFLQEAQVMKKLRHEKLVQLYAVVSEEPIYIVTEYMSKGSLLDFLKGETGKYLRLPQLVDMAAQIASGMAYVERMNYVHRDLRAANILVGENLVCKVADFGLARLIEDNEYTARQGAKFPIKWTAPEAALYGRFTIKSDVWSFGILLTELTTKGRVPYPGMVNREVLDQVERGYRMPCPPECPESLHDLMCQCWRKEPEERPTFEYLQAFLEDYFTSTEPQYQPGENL", "assay": "Kinase inhibition profiling SRC (ELISA)", "format": "biochemical", "quoted_text": "as §1"}, "KDR": {"biological_target": "T18, KDR (Homo sapiens, UniProt P35968)", "T18 construct": "Cytoplasmic domain of human KDR [790-1356 amino; made in house; host or cells: baculovirus expression system", "assay": "Kinase inhibition profiling KDR (ELISA)", "format": "biochemical", "quoted_text": "as §2, §1"}, "FGFR1": {"biological_target": "T19, FGFR1 (Homo sapiens, UniProt P11362)", "T19 construct": "Cytoplasmic domain of human FGFR1 [396-820 amino; made in house; host or cells: baculovirus expression system", "T19 sequence (P11362 398-822)": "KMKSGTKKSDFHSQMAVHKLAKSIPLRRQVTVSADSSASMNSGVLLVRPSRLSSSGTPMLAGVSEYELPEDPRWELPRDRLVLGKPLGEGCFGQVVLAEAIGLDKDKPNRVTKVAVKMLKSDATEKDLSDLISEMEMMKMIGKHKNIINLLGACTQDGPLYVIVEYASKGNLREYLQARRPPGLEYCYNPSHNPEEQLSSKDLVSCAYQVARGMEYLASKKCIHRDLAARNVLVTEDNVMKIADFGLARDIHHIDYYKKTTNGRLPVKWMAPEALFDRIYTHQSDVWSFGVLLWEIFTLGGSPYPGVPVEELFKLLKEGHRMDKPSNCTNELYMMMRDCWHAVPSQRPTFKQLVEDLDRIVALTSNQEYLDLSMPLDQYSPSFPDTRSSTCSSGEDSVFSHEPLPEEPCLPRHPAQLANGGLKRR", "assay": "Kinase inhibition profiling FGFR1 (ELISA)", "format": "biochemical", "quoted_text": "as §1"}, "TrkB": {"biological_target": "T20, TrkB (Homo sapiens, UniProt Q16620)", "T20 construct": "Cytoplasmic domain of human TRKB [456-822 amino; made in house; host or cells: baculovirus expression system", "T20 sequence (Q16620 456-822)": "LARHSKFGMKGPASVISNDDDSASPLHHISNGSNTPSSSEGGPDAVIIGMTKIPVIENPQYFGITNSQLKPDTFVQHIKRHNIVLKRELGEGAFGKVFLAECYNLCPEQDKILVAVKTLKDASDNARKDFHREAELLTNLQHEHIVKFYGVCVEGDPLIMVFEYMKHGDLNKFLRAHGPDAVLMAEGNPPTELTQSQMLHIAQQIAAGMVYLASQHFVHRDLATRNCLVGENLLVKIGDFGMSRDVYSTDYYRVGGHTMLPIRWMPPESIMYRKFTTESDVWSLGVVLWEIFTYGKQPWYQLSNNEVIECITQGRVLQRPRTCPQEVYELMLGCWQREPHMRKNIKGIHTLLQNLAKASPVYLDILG", "assay": "Kinase inhibition profiling TrkB (ELISA)", "format": "biochemical", "quoted_text": "as §2, §1"}, "MER": {"biological_target": "T21, MER (Homo sapiens, UniProt Q12866)", "T21 construct": "made in house; host or cells: baculovirus expression system", "assay": "Kinase inhibition profiling MER (ELISA)", "format": "biochemical", "quoted_text": "as §1"}, "IRAK4": {"biological_target": "T22, IRAK4 (Homo sapiens, UniProt Q9NWZ3)", "T22 construct": "Kinase domain (KD) of Human IRAK4 [172-460 amino; GST (N); made in house; host or cells: baculovirus expression system", "assay": "Kinase inhibition profiling IRAK4 (IMAP); further: ATP 80 µM", "format": "biochemical", "quoted_text": "as §1"}, "INSR": {"biological_target": "T23, INSR (Homo sapiens, UniProt P06213)", "T23 construct": "Kinase domain (KD) of human INSR [1005-1310 amino; His (N, cleaved yes); made in house; host or cells: baculovirus expression system", "T23 sequence (P06213 1005-1310)": "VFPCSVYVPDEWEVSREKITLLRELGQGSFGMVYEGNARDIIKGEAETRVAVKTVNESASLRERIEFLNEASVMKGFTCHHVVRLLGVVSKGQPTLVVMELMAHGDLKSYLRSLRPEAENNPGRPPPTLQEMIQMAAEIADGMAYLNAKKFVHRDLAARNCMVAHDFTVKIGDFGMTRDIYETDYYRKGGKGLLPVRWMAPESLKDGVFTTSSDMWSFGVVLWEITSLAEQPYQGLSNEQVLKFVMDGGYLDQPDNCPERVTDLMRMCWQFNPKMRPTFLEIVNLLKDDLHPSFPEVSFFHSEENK", "assay": "Kinase inhibition profiling INSR (ELISA)", "format": "biochemical", "quoted_text": "as §1"}, "JAK3": {"biological_target": "T24, JAK3 (Homo sapiens, UniProt P52333)", "T24 construct": "Kinase domain (KD) of human JAK3 [795-1124 amino; made in house; host or cells: baculovirus expression system", "assay": "Kinase inhibition profiling JAK3 (ELISA); further: ATP 5 µM", "format": "biochemical", "quoted_text": "as §1"}, "EphB2": {"biological_target": "T25, EphB2 (Homo sapiens, UniProt P29323)", "T25 construct": "Cytoplasmic domain of human EphB2 [581-987 amino; made in house; host or cells: baculovirus expression system", "T25 sequence (P29323 581-987 isoform P29323-3)": "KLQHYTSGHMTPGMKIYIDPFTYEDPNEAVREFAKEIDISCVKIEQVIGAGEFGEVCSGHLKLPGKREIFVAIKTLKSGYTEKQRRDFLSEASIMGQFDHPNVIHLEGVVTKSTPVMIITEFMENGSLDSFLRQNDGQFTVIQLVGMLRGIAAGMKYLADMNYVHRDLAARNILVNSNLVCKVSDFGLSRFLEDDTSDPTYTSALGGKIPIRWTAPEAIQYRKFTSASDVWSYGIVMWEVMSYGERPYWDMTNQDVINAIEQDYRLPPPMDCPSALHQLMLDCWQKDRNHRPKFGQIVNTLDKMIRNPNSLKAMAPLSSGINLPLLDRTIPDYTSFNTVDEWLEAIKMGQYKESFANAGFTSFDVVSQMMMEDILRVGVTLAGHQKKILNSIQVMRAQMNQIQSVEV", "assay": "Kinase inhibition profiling EphB2 (ELISA)", "format": "biochemical", "quoted_text": "as §1"}, "PKACα": {"biological_target": "T26, PKACα (Homo sapiens, UniProt P17612)", "T26 construct": "made in house; host or cells: baculovirus expression system", "assay": "Kinase inhibition profiling PKACα (IMAP)", "format": "biochemical", "quoted_text": "as §2, §1"}, "HER2": {"biological_target": "T27, HER2 (Homo sapiens, UniProt P04626)", "T27 construct": "Cytoplasmic domain of human HER2 [676-1255 amino; made in house; host or cells: baculovirus expression system", "assay": "Kinase inhibition profiling HER2 (ELISA); further: ATP 5 µM", "format": "biochemical", "quoted_text": "as §1"}}, "data": [{"smiles": "COC(=O)[C@]1(O)CC2O[C@@]1(C)n1c3ccccc3c3c4c(c5c6ccccc6n2c5c31)C(=O)NC4", "note": "[K-252a]", "values": [{"measurement": "inhibition at 0.2 µM", "setting": "ABL", "result": -14.2, "unit": "%"}, {"measurement": "inhibition at 0.2 µM", "setting": "RET", "result": 94.2, "unit": "%"}, {"measurement": "inhibition at 0.2 µM", "setting": "ARG", "result": 0.1, "unit": "%"}, {"measurement": "inhibition at 0.2 µM", "setting": "SRM", "result": 0.4, "unit": "%"}, {"measurement": "inhibition at 0.2 µM", "setting": "PKCγ", "result": 53.3, "unit": "%"}, {"measurement": "inhibition at 0.2 µM", "setting": "RON", "result": 5.2, "unit": "%"}, {"measurement": "inhibition at 0.2 µM", "setting": "EphA2", "result": 8.9, "unit": "%"}, {"measurement": "inhibition at 0.2 µM", "setting": "TYK2", "result": 98.1, "unit": "%"}, {"measurement": "inhibition at 0.2 µM", "setting": "JAK1", "result": 83.1, "unit": "%"}, {"measurement": "HMGB1-induced BASMC cell proliferation", "setting": "[1]", "result": "antagonizes BASMC cell proliferation at all the concentrations tested in a time-dependent fashion and in a nM range"}, {"measurement": "inhibition at 0.2 µM", "setting": "MET", "result": 83.2, "unit": "%"}, {"measurement": "inhibition at 0.2 µM", "setting": "CDK2/cyclinA", "result": 75.5, "unit": "%"}, {"measurement": "inhibition at 0.2 µM", "setting": "LYNb", "result": 51.2, "unit": "%"}, {"measurement": "inhibition at 0.2 µM", "setting": "ALK", "result": 69.5, "unit": "%"}, {"measurement": "inhibition at 0.2 µM", "setting": "CHK2", "result": 93.9, "unit": "%"}, {"measurement": "inhibition at 0.2 µM", "setting": "LCK", "result": 65.2, "unit": "%"}, {"measurement": "inhibition at 0.2 µM", "setting": "CSK", "result": 43, "unit": "%"}, {"measurement": "inhibition at 0.2 µM", "setting": "SRC", "result": 20.6, "unit": "%"}, {"measurement": "inhibition at 0.2 µM", "setting": "KDR", "result": 62.9, "unit": "%"}, {"measurement": "inhibition at 0.2 µM", "setting": "FGFR1", "result": 57.9, "unit": "%"}, {"measurement": "inhibition at 0.2 µM", "setting": "TrkB", "result": 98.2, "unit": "%"}, {"measurement": "inhibition at 0.2 µM", "setting": "MER", "result": 80.8, "unit": "%"}, {"measurement": "inhibition at 0.2 µM", "setting": "IRAK4", "result": 51.9, "unit": "%"}, {"measurement": "inhibition at 0.2 µM", "setting": "INSR", "result": 38, "unit": "%"}, {"measurement": "inhibition at 0.2 µM", "setting": "JAK3", "result": 100, "unit": "%"}, {"measurement": "inhibition at 0.2 µM", "setting": "EphB2", "result": 0.4, "unit": "%"}, {"measurement": "inhibition at 0.2 µM", "setting": "PKACα", "result": 69.4, "unit": "%"}, {"measurement": "inhibition at 0.2 µM", "setting": "HER2", "result": 7.7, "unit": "%"}]}]}
